Where two headings read alike, the source gives them in different places.
Target: T1, human PI 3-kinase p120γ (Homo sapiens, UniProt P48736)
T1 construct: purchased Millipore Corporation
Assay: PI 3-kinase p120γ enzyme activity inhibition test
Type: biochemical
Conditions: ATP 10.0 μM, PIP2-PS 5.0 μM, 30° C., 2 hours
Procedure: Using human PI 3-kinase p120γ (manufactured by Millipore Corporation) and a mixed micellized product (hereinafter abbreviated as PIP2-PS) of the substrate thereof, L-a-Phosphatidyl-D-myo-inositol-4,5-bisphosphate (product of Calbiochem, hereinafter abbreviated as PIP2), and L-a-Phosphatidyl-L-Serine (manufactured by Sigma, hereinafter abbreviated as PS), the compound of the present invention was examined for the inhibitory action on PI3 Kinase p120γ enzyme activity (Km=8.9 μM for ATP, Km=4.0 μM for PIP2-PS).
PIP2-PS was prepared by mixing 500 μM of PIP2 and 2.5 nM of PS and sonicating the mixture for 40 minutes while ice cooling to cause micellization. ATP (final concentration 10.0 μM), [γ-^33P] ATP (final concentration 10 μCi/ml), PIP2-PS (final concentration 5.0 μM) and DMSO solutions of the test compound in different concentrations (compound final concentration 1.0×10^−5 to 2.4×10^−12 M, DMSO final concentration 0.1%) were added to PI 3-kinase p120γ, stirred and reacted at 30° C. for 2 hours. Using Phospholipid-Coated FlashPlate Microplates, 96-Well and Phospholipid FlashPlate Coating Buffer (both manufactured by PerkinElmer Co., Ltd.), PIP2-PS and phosphorylated PIP2-PS were allowed to be adsorbed to the well wall of the plate and collected. The well was washed twice with PBS (Phosphate-Buffered Saline) and dried. The radioactivity was measured using Top Count NXT (manufactured by PerkinElmer Co., Ltd.), whereby the phosphorylated amount (a) of PIP2-PS at the time of compound addition was calculated.
The same procedure was carried out in the absence of the test compound and the phosphorylated amount (b) of PIP2-PS was calculated. Further, the same procedure was carried out in the absence of both of the substrate and the test compound, and the PIP2-PS phosphorylated amount (c) of the background was calculated.
The PI3 Kinase p120γ enzyme activity suppression rate of the compound was calculated by the following formula. Suppression rate (%)=[1−(a−c)/(b−c)]×100
More specifically, using the suppression rate by the test compound of different concentrations, the IC50 value was calculated according to the dose-dependent inhibition curve analyzed by a data analysis software Origin (Lightstone Corp.) and used as the inhibitory activity index.

[1] = read-out: PI3Kγ (IC50 value class)

T1 sequence (P48736 whole entry): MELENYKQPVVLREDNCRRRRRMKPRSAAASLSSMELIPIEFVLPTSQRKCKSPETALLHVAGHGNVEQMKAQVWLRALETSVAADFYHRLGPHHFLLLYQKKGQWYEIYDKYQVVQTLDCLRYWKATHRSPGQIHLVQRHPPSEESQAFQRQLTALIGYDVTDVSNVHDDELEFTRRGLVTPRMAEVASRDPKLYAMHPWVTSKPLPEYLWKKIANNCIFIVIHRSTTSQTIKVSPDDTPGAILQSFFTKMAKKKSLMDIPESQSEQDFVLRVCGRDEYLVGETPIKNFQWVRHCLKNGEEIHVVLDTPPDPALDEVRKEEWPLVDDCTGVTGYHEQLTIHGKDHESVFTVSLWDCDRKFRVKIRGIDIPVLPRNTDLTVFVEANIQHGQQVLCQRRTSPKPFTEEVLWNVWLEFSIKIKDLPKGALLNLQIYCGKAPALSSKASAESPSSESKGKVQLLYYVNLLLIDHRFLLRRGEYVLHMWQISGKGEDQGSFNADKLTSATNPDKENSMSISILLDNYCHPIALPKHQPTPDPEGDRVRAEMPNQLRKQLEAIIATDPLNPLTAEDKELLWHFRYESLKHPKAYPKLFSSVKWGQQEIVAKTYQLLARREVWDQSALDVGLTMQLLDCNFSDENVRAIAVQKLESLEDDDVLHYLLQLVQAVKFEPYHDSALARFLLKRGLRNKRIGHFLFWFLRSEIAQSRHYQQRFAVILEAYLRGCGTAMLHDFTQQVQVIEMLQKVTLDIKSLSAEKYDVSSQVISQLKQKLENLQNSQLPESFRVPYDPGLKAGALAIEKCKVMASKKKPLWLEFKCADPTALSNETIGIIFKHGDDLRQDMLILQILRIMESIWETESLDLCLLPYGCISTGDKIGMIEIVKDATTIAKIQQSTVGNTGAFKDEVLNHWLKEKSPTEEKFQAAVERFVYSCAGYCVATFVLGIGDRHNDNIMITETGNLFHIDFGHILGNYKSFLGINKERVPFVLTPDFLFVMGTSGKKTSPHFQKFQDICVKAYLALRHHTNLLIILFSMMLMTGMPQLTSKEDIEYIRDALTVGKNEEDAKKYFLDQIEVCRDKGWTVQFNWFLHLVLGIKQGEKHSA

Row | SMILES | IC50 [1] [µM] | IC50 (read-out: IC50 value) [µM]
1 | CC(=O)Nc1nc(C)c(-c2nc(-c3cccnc3)no2)s1 [Example 1, N-{4-methyl-5-[3-(pyridin-3-yl)-1,2,4-oxadiazol-5-yl]-1,3-thiazol-2-yl}acetamide] | < 0.1 | –
2 | CC(=O)Nc1nc(C)c(-c2nc(C(C)(C)C)no2)s1 [Example 2, N-[5-(3-tert-butyl-1,2,4-oxadiazol-5-yl)-4-methyl-1,3-thiazol-2-yl]acetamide] | < 0.1 | –
3 | CC(=O)Nc1nc(C)c(-c2nc(-c3cncnc3)no2)s1 [Example 3, N-{4-methyl-5-[3-(pyrimidin-5-yl)-1,2,4-oxadiazol-5-yl]-1,3-thiazol-2-yl}acetamide] | < 0.1 | –
4 | COc1ccc(-c2noc(-c3sc(NC(C)=O)nc3C)n2)cn1 [Example 4] | < 0.1 | –
5 | CC(=O)Nc1nc(C)c(-c2nc(-c3ccc(OCc4cccnc4)nc3)no2)s1 [Example 5] | 0.5 to 10 | 7.23
6 | CC(=O)Nc1nc(C)c(-c2nc(-c3cccnc3C)no2)s1 [Example 6] | < 0.1 | –
7 | CC(=O)Nc1nc(C)c(-c2nc(-c3ccccc3)no2)s1 [Example 7] | < 0.1 | –
8 | CC(=O)Nc1nc(C)c(-c2nc(Cc3cccnc3)no2)s1 [Example 8] | 0.5 to 10 | –
9 | CC(=O)Nc1nc(C)c(-c2nc(C3CCCCC3)no2)s1 [Example 9] | < 0.1 | –
10 | CC(=O)Nc1nc(C)c(-c2nc(-c3ccccn3)no2)s1 [Example 10] | 0.1 to 0.5 | –
11 | CC(=O)Nc1nc(C)c(-c2nc(-c3ccncc3)no2)s1 [Example 11] | 0.5 to 10 | –
12 | CC(=O)Nc1nc(C)c(-c2nc(CCc3cccnc3)no2)s1 [Example 12] | 0.1 to 0.5 | –
13 | CC(=O)Nc1nc(C)c(-c2nc(CCO)no2)s1 [Example 13] | 0.1 to 0.5 | –
14 | CC(=O)Nc1nc(C)c(-c2nc(-c3cnccc3C)no2)s1 [Example 14] | < 0.1 | –
15 | CC(=O)Nc1nc(C)c(-c2nc(-c3cncc(C)c3)no2)s1 [Example 15] | < 0.1 | –
16 | COc1ncccc1-c1noc(-c2sc(NC(C)=O)nc2C)n1 [Example 16] | < 0.1 | –
17 | CC(=O)Nc1nc(C)c(-c2nc(-c3ccc(C)nc3)no2)s1 [Example 17] | < 0.1 | –
18 | CC(=O)Nc1nc(C)c(-c2nc(C3CCCC3)no2)s1 [Example 18] | < 0.1 | –
19 | CC(=O)Nc1nc(C)c(-c2nc(CC(F)(F)F)no2)s1 [Example 19] | < 0.1 | –
20 | CC(=O)Nc1nc(C)c(-c2nc(CC(C)C)no2)s1 [Example 20] | < 0.1 | –
21 | CC(=O)Nc1nc(C)c(-c2nc(-c3cccc(CO)c3)no2)s1 [Example 21] | < 0.1 | –
22 | COCCc1noc(-c2sc(NC(C)=O)nc2C)n1 [Example 22] | 0.1 to 0.5 | –
23 | CC(=O)Nc1nc(C)c(-c2nc(-c3cnccn3)no2)s1 [Example 23] | < 0.1 | –
24 | CC(=O)Nc1nc(C)c(-c2nc(CS(C)(=O)=O)no2)s1 [Example 24] | < 0.1 | –
25 | CC(=O)Nc1nc(C)c(-c2nc(-c3ccc(CO)cc3)no2)s1 [Example 25] | < 0.1 | –

Row | SMILES | IC50 [1] [µM] | IC50 (read-out: IC50 value) [µM]
26 | CC(=O)Nc1nc(C)c(-c2nc(C3CCC3)no2)s1 [Example 26] | < 0.1 | –
27 | CC(=O)Nc1nc(C)c(-c2nc(-c3cccc(O)c3)no2)s1 [Example 27] | < 0.1 | –
28 | CC(=O)Nc1nc(C)c(-c2nc(-c3cccc(CCO)c3)no2)s1 [Example 28] | < 0.1 | –
29 | CC(=O)Nc1nc(C)c(-c2nc(-c3ccccc3CO)no2)s1 [Example 29] | < 0.1 | –
30 | CC(=O)Nc1nc(C)c(-c2nc(CCCOC(C)=O)no2)s1 [Example 30] | 0.5 to 10 | –
31 | CC(=O)Nc1nc(C)c(-c2nc(CC(C)(C)CO)no2)s1 [Example 31, N-{5-[3-(3-hydroxy-2,2-dimethylpropyl)-1,2,4-oxadiazol-5-yl]-4-methyl-1,3-thiazol-2-yl}acetamide] | < 0.1 | –
32 | CC(=O)Nc1nc(C)c(-c2nc(-c3cncc(O)c3)no2)s1 [Example 32] | < 0.1 | –
33 | CC(=O)Nc1nc(C)c(-c2nc(CCCO)no2)s1 [Example 33] | 0.1 to 0.5 | –
34 | CC(=O)Nc1nc(C)c(-c2nc(CC(C)(C)O)no2)s1 [Example 34] | < 0.1 | –
35 | C=Cc1noc(-c2sc(NC(C)=O)nc2C)n1 [Example 35] | 0.1 to 0.5 | –
36 | CC(=O)Nc1nc(C)c(-c2nc(Cc3cccc(CO)c3)no2)s1 [Example 36] | 0.5 to 10 | –
37 | COC(=O)c1cncc(-c2noc(-c3sc(NC(C)=O)nc3C)n2)c1 [Example 37] | < 0.1 | –
38 | CC(=O)Nc1nc(C)c(-c2nc(CC(C)O)no2)s1 (centres unmarked) [Example 38] | 0.1 to 0.5 | –
39 | CC(=O)Nc1nc(C)c(-c2nc(-c3ccc(=O)n(C)c3)no2)s1 [Example 39] | 0.1 to 0.5 | –
40 | CC(=O)Nc1nc(C)c(-c2nc(-c3ccc(=O)[nH]c3)no2)s1 [Example 40] | 0.1 to 0.5 | –
41 | CC(=O)Nc1nc(C)c(-c2nc(CC3(C)COC3)no2)s1 [Example 41] | < 0.1 | –
42 | CC(=O)Nc1nc(C)c(-c2nc(CC(C)(CO)CO)no2)s1 [Example 42] | < 0.1 | –
43 | CC(=O)Nc1nc(C)c(-c2nc(CC(C)(C)CN)no2)s1 [Example 43] | 0.5 to 10 | –
44 | CC(=O)Nc1nc(C)c(-c2nc(CC(C)(C)CNS(C)(=O)=O)no2)s1 [Example 44] | < 0.1 | –
45 | CC(=O)Nc1nc(C)c(-c2nc(CC3CCOCC3)no2)s1 [Example 45] | 0.1 to 0.5 | –
46 | CCC(CC)(CO)Cc1noc(-c2sc(NC(C)=O)nc2C)n1 [Example 46] | < 0.1 | –
47 | CC(=O)Nc1nc(C)c(-c2nc(CCC(C)(C)O)no2)s1 [Example 47] | 0.1 to 0.5 | –
48 | CC(=O)Nc1nc(C)c(-c2nc(CC3(CO)CC3)no2)s1 [Example 48] | < 0.1 | –
49 | CC(=O)Nc1nc(C)c(-c2nc(Cc3cccc(O)c3)no2)s1 [Example 49] | 0.1 to 0.5 | –
50 | COCc1noc(-c2sc(NC(C)=O)nc2C)n1 [Example 50] | 0.1 to 0.5 | –

Row | SMILES | IC50 [1] [µM] | IC50 (read-out: IC50 value) [µM]
51 | COCC(C)(C)Cc1noc(-c2sc(NC(C)=O)nc2C)n1 [Example 51] | < 0.1 | –
52 | COC(Cc1noc(-c2sc(NC(C)=O)nc2C)n1)OC [Example 52] | 0.5 to 10 | –
53 | CC(=O)Nc1nc(C)c(-c2nc(C3CCOCC3)no2)s1 [Example 54] | < 0.1 | –
54 | CCOC(=O)c1noc(-c2sc(NC(C)=O)nc2C)n1 [Example 55, Ethyl-5-[2-(acetylamino)-4-methyl-1,3-thiazol-5-yl]-1,2,4-oxadiazol-3-carboxylate] | 0.1 to 0.5 | –
55 | CC(=O)Nc1nc(C)c(-c2nc(CC3(CO)COC3)no2)s1 [Example 57] | 0.1 to 0.5 | –
56 | CCOC(C)(OCC)c1noc(-c2sc(NC(C)=O)nc2C)n1 [Example 58] | 0.5 to 10 | –
57 | CC(=O)Nc1nc(C)c(-c2nc(CCCCOC(C)=O)no2)s1 [Example 59] | 0.5 to 10 | –
58 | CC(=O)Nc1nc(C)c(-c2nc(C(C)=O)no2)s1 [Example 60] | < 0.1 | –
59 | CC(=O)Nc1nc(C)c(-c2nc(CCCCO)no2)s1 [Example 61] | 0.1 to 0.5 | –
60 | CC(=O)Nc1nc(C)c(-c2nc(C[C@H](C)CO)no2)s1 [Example 62] | < 0.1 | –
61 | CC(=O)Nc1nc(C)c(-c2nc(C3CCOC3)no2)s1 (centres unmarked) [Example 63] | < 0.1 | –
62 | CC(=O)Nc1nc(C)c(-c2nc(C(C)(C)O)no2)s1 [Example 64] | < 0.1 | –
63 | CC(=O)Nc1nc(C)c(-c2nc(C(C)(C)CO)no2)s1 [Example 65] | < 0.1 | –
64 | CC(=O)CCc1noc(-c2sc(NC(C)=O)nc2C)n1 [Example 66] | 0.1 to 0.5 | –
65 | CC(=O)Nc1nc(C)c(-c2nc(CC(O)CC(F)(F)F)no2)s1 (centres unmarked) [Example 67] | 0.1 to 0.5 | 0.428
66 | CC(=O)Nc1nc(C)c(-c2nc(CC(C)(C)C)no2)s1 [Example 68] | < 0.1 | –
67 | CC(=O)Nc1nc(C)c(-c2nc([C@H](O)C(C)(C)C)no2)s1 [Example 69] | < 0.1 | –
68 | CC(=O)Nc1nc(C)c(-c2nc(C(N)=O)no2)s1 [Example 70] | 0.1 to 0.5 | –
69 | COC(=O)CCc1noc(-c2sc(NC(C)=O)nc2C)n1 [Example 71] | 0.1 to 0.5 | –
70 | CC(=O)Nc1nc(C)c(-c2nc(C(=O)N3CCOCC3)no2)s1 [Example 72, N-{4-methyl-5-[3-(morpholin-4-ylcarbonyl)-1,2,4-oxadiazol-5-yl]-1,3-thiazol-2-yl}acetamide] | 0.5 to 10 | –
71 | CC(=O)Nc1nc(C)c(-c2nc(C(C)(C)CCO)no2)s1 [Example 73] | < 0.1 | –
72 | CC(=O)Nc1nc(C)c(-c2nc(C(C)NC(=O)OC(C)(C)C)no2)s1 (centres unmarked) [Example 74] | 0.5 to 10 | –
73 | CC(=O)Nc1nc(C)c(-c2nc(CN3CCOCC3)no2)s1 [Example 75] | 0.5 to 10 | –
74 | CC(=O)Nc1nc(C)c(-c2nc(CC(C)(C)COS(C)(=O)=O)no2)s1 [Example 76] | 0.1 to 0.5 | –
75 | CC(=O)Nc1nc(C)c(-c2nc(C(C)NC(C)=O)no2)s1 (centres unmarked) [Example 77] | 0.5 to 10 | –

Source: US8637557B2, “Aminothiazole derivative” (Taisho Pharmaceutical Co., Ltd, priority 2009, dated 2014)
